The text below walks through data of US8378117B2 (priority 2005, dated 2013).

“And” between values parts separate entries of the source, which are not always exact repeats. Equal values may be shown once.

In one experiment the target is T1, CB2 receptor (Homo sapiens, UniProt P34972).
T1 construct: expressed in transfected cells
Kind of experiment: Binding assay for CB2 agonists or inverse agonists (SK-N-MC membranes, [3H]-CP-55,940). The conditions noted are these: for inhibition at 0.2 µM: read-out: CB2 receptor binding percent inhibition, test concentration 0.2 μM (footnote 2). Put shortly: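 IC50 came from percent-inhibition data over several compound concentrations, fitted by linear regression. Binding used semi-purified membranes of human CB2-transfected SK-N-MC cells, 90 min at 30 °C, pH 7.5 Tris-HCl with MgCl2, EDTA and BSA, then filtration and scintillation counting.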

Experiment [1] concerns the target T2, CB1 receptor (Homo sapiens, UniProt P21554).
T2 construct: expressed in transfected cells
Description: cell-based. Particulars: CB1 Receptor Functional Inverse Agonist EC50, forskolin induced β-galactosidase activity, SK-N-MC cells. Put shortly:
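Read-out is forskolin-driven CRE-β-gal reporter activity in stably transfected human-CB1 SK-N-MC cells, normalised to vehicle (100%); agonism lowers, inverse agonism raises signal. Values are EC50 (linear regression, multiple concentrations) or % change at one concentration.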

In experiment [2] the target is T2, CB1 receptor. Description: Binding assay for CB1 agonists or inverse agonists (SK-N-MC membranes, [3H]-CP-55,940). Particulars: for IC50: Cannabinoid CB1 Receptor Binding IC50, calculated by linear regression from percent inhibition at various test concentrations; for inhibition at 0.2 µM: read-out: CB1 receptor binding percent inhibition, test concentration 0.2 μM (footnote 2). In short, it runs like this:
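Radioligand displacement: [3H]-CP-55,940 at […], 90 min at 30° C, pH 7.5 Tris buffer with 0.5 mg/mL fatty-acid-free BSA, using semi-purified membranes of human-CB1-transfected SK-N-MC cells. Bound counts collected on GF/C filters, 10 uM WIN 55,212 for non-specific; IC50 from percent inhibition over several concentrations.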

T2 sequence (P21554 whole entry): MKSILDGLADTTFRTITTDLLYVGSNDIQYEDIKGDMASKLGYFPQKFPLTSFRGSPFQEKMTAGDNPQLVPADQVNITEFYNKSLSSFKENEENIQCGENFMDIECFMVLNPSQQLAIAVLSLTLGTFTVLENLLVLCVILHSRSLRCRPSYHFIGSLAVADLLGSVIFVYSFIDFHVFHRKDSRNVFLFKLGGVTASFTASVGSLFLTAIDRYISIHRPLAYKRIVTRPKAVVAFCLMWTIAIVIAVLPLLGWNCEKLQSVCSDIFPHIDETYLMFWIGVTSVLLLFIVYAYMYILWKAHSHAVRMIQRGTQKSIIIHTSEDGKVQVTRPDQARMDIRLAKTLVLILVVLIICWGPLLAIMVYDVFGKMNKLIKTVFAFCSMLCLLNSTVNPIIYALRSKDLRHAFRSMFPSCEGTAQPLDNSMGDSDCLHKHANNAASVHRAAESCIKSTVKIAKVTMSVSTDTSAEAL
T1 sequence (P34972 whole entry): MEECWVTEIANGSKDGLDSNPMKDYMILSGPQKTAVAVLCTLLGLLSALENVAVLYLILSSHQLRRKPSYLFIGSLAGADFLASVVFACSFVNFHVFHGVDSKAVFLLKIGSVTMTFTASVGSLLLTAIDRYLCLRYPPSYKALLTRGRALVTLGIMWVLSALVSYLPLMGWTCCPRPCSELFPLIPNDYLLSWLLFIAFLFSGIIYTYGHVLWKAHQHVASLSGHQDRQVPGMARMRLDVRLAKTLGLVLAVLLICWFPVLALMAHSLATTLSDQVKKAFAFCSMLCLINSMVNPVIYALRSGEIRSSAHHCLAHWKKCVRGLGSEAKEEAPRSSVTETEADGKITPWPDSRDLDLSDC

As to `CC(C)(NC(=O)c1nn(-c2ccc(Cl)cc2Cl)c2c1CCCC/C2=C\c1ccc(F)cc1)c1ccccc1` [Cpd 205, (8E)-1-(2,4-dichloro-phenyl)-8-(4-fluoro-benzylidene)-1,4,5,6,7,8-hexahydro-cycloheptapyrazole-3-carboxylic acid (1-methyl-1-phenyl-ethyl)-amide], the inhibition at 0.2 µM on CB2 receptor worked out at 27%. The 50% effective concentration (EC50) (as a rule, the concentration at which the effect is half-maximal) on CB1 receptor [1] came out at 9 nM. Moreover, on CB1 receptor [2], the IC50 (in general, the point on the concentration scale where inhibition reaches its midpoint) was 20 nM and the inhibition at 0.2 µM was determined as 93%.
As to `O=C(c1nn(-c2ccc(Cl)cc2Cl)c2c1CCCC/C2=C\c1ccc(F)cc1)N1CCCCC1c1ccccn1` (centres unmarked) [Cpd 206, (8E)-[1-(2,4-dichloro-phenyl)-8-(4-fluoro-benzylidene)-1,4,5,6,7,8-hexahydro-cycloheptapyrazol-3-yl]-(3,4,5,6-tetrahydro-2H-[2,2′]bipyridinyl-1-yl)-methanone], the inhibition at 0.2 µM was found to be 22% on CB2 receptor and 73% on CB1 receptor [2]. Also, the response at CB1 receptor [1] was half-maximal at 10 nM (EC50). Further, at CB1 receptor [2], the IC50 was 80 nM.
As to `O=C(N[C@@H]1CCc2ccccc21)c1nn(-c2ccc(Cl)cc2Cl)c2c1CCCC/C2=C\c1ccc(F)cc1` [Cpd 207, (8E)-1-(2,4-dichloro-phenyl)-8-(4-fluoro-benzylidene)-1,4,5,6,7,8-hexahydro-cycloheptapyrazole-3-carboxylic acid (1R)-indan-1-ylamide], the inhibition at 0.2 µM on CB2 receptor amounted to 1%. Besides, the EC50 on CB1 receptor [1] is 7 nM. Further, at CB1 receptor [2], the IC50 was 20 nM and the inhibition at 0.2 µM worked out at 90%.
For the molecule `O=C(N[C@H]1c2ccccc2C[C@H]1O)c1nn(-c2ccc(Cl)cc2Cl)c2c1CCCC/C2=C\c1ccc(F)cc1` [Cpd 208, (8E)-1-(2,4-dichloro-phenyl)-8-(4-fluoro-benzylidene)-1,4,5,6,7,8-hexahydro-cycloheptapyrazole-3-carboxylic acid [(1S,2R)-2-hydroxy-indan-1-yl]-amide], the inhibition at 0.2 µM was 31% on CB2 receptor and 76% on CB1 receptor [2]. The molecule also returned an EC50 at CB1 receptor [1] of 10 nM. On CB1 receptor [2], the IC50 is 70 nM.
The matching figures for `O=C(NC1CCCc2ccccc21)c1nn(-c2ccc(Cl)cc2Cl)c2c1CCCC/C2=C\c1ccc(F)cc1` (centres unmarked) [Cpd 209, (8E)-1-(2,4-dichloro-phenyl)-8-(4-fluoro-benzylidene)-1,4,5,6,7,8-hexahydro-cycloheptapyrazole-3-carboxylic acid (1,2,3,4-tetrahydro-naphthalen-1-yl)-amide]: 8%, 88%, 10 nM and 30 nM.
The corresponding values for `COc1ccc(/C=C2\CCCCc3c(C(=O)NCc4ccccn4)nn(-c4ccc(Cl)cc4Cl)c32)cc1` [Cpd 210, (8E)-1-(2,4-dichloro-phenyl)-8-(4-methoxy-benzylidene)-1,4,5,6,7,8-hexahydro-cycloheptapyrazole-3-carboxylic acid (pyridin-2-ylmethyl)-amide] are 49%, 76%, 20 nM and 40 nM.
For `COc1ccc(/C=C2\CCCCc3c(C(=O)NC(C)(C)c4ccccc4)nn(-c4ccc(Cl)cc4Cl)c32)cc1` [Cpd 211, (8E)-1-(2,4-dichloro-phenyl)-8-(4-methoxy-benzylidene)-1,4,5,6,7,8-hexahydro-cycloheptapyrazole-3-carboxylic acid (1-methyl-1-phenyl-ethyl)-amide], the inhibition at 0.2 µM stood at 37% on CB2 receptor and 92% at CB1 receptor [2]. On CB1 receptor [1], this molecule yielded an EC50 of 20 nM. The IC50 on CB1 receptor [2] is 7 nM.
On to `COc1ccc(/C=C2\CCCCc3c(C(=O)N[C@H](C)c4ccccc4)nn(-c4ccc(Cl)cc4Cl)c32)cc1` [Cpd 212, (8E)-1-(2,4-dichloro-phenyl)-8-(4-methoxy-benzylidene)-1,4,5,6,7,8-hexahydro-cycloheptapyrazole-3-carboxylic acid [(1R)-1-phenyl-ethyl]-amide], for which the inhibition at 0.2 µM at CB2 receptor is 42%. In addition, at CB1 receptor [1], the midpoint of the response, the EC50, lay at 20 nM. In addition, at CB1 receptor [2], the IC50 is 6 nM and the inhibition at 0.2 µM is 94%.
With `COc1ccc(/C=C2\CCCCc3c(C(=O)N[C@@H](C)c4ccccc4)nn(-c4ccc(Cl)cc4Cl)c32)cc1` [Cpd 213, (8E)-1-(2,4-dichloro-phenyl)-8-(4-methoxy-benzylidene)-1,4,5,6,7,8-hexahydro-cycloheptapyrazole-3-carboxylic acid [(1S)-1-phenyl-ethyl]-amide], the inhibition at 0.2 µM was determined as 19% on CB2 receptor and 71% at CB1 receptor [2]. Further, at CB1 receptor [1], the half-maximal effective concentration (EC50) stood at 10 nM. The IC50 on CB1 receptor [2] is 60 nM.
With `COc1ccc(/C=C2\CCCCc3c(C(=O)N[C@H](C)C4CCCCC4)nn(-c4ccc(Cl)cc4Cl)c32)cc1` [Cpd 214, (8E)-1-(2,4-dichloro-phenyl)-8-(4-methoxy-benzylidene)-1,4,5,6,7,8-hexahydro-cycloheptapyrazole-3-carboxylic acid [(1R)-1-cyclohexyl-ethyl]-amide], the inhibition at 0.2 µM was 43% at CB2 receptor and 95% at CB1 receptor [2]. The molecule also yielded an EC50 at CB1 receptor [1] of 30 nM. The IC50 at CB1 receptor [2] is 7 nM.
The matching figures for `COc1ccc(/C=C2\CCCCc3c(C(=O)N[C@H](CO)c4ccccc4)nn(-c4ccc(Cl)cc4Cl)c32)cc1` [Cpd 215, (8E)-1-(2,4-dichloro-phenyl)-8-(4-methoxy-benzylidene)-1,4,5,6,7,8-hexahydro-cycloheptapyrazole-3-carboxylic acid [(1S)-2-hydroxy-1-phenyl-ethyl]-amide]: 24%, 88%, 10 nM and 10 nM.
Turning to `COc1ccc(/C=C2\CCCCc3c(C(=O)N[C@@H]4CCc5ccccc54)nn(-c4ccc(Cl)cc4Cl)c32)cc1` [Cpd 216, (8E)-1-(2,4-dichloro-phenyl)-8-(4-methoxy-benzylidene)-1,4,5,6,7,8-hexahydro-cycloheptapyrazole-3-carboxylic acid (1R)-indan-1-ylamide], the figures for the inhibition at 0.2 µM on CB2 receptor and at CB1 receptor [2] were 33% and 91%, respectively. Further, it took 50 nM to reach a half-maximal effect at CB1 receptor [1] (EC50). The half-inhibitory concentration (IC50) on CB1 receptor [2] was 9 nM.
Turning to `COc1ccc(/C=C2\CCCCc3c(C(=O)NN4CCCCC4)nn(-c4ccc(Cl)cc4Cl)c32)cc1` [Cpd 217, (8E)-1-(2,4-dichloro-phenyl)-8-(4-methoxy-benzylidene)-1,4,5,6,7,8-hexahydro-cycloheptapyrazole-3-carboxylic acid piperidin-1-ylamide], the inhibition at 0.2 µM on CB2 receptor worked out at 52%. On CB1 receptor [1], the midpoint of the response, the EC50, lay at 20 nM. For the same molecule, on CB1 receptor [2], the IC50 was 60 nM and the inhibition at 0.2 µM was determined as 75%.
For the molecule `COc1ccc(/C=C2\CCCCc3c(C(=O)NC(C)c4ccccn4)nn(-c4ccc(Cl)cc4Cl)c32)cc1` (centres unmarked) [Cpd 222, (8E)-1-(2,4-dichloro-phenyl)-8-(4-methoxy-benzylidene)-1,4,5,6,7,8-hexahydro-cycloheptapyrazole-3-carboxylic acid (1-pyridin-2-yl-ethyl)-amide], the inhibition at 0.2 µM on CB2 receptor turned out to be 41%. For the same molecule, on CB1 receptor [1], the response was half-maximal at 30 nM (EC50). Also, at CB1 receptor [2], the half-inhibitory concentration (IC50) is 30 nM and the inhibition at 0.2 µM is 48%.
`CC(NC(=O)c1nn(-c2ccc(Cl)cc2Cl)c2c1CCCC/C2=C\c1ccc(F)cc1)c1ccccn1` (centres unmarked) [Cpd 224, (8E)-1-(2,4-dichloro-phenyl)-8-(4-fluoro-benzylidene)-1,4,5,6,7,8-hexahydro-cycloheptapyrazole-3-carboxylic acid (1-pyridin-2-yl-ethyl)-amide]: the inhibition at 0.2 µM at CB2 receptor turned out to be 4%. In addition, at CB1 receptor [1], the response was half-maximal at 4 nM (EC50). On CB1 receptor [2], the IC50 is 8 nM and the inhibition at 0.2 µM amounted to 87%.
Turning to `C[C@@H](NC(=O)c1nn(-c2ccc(Cl)cc2Cl)c2c1CCCC/C2=C\c1ccc(F)cc1)c1ccccn1` [Cpd 225, (8E)-1-(2,4-dichloro-phenyl)-8-(4-fluoro-benzylidene)-1,4,5,6,7,8-hexahydro-cycloheptapyrazole-3-carboxylic acid [(1R)-1-pyridin-2-yl-ethyl]-amide], the inhibition at 0.2 µM on CB2 receptor worked out at 6%; at CB1 receptor [2] it was 90%. Moreover, the inhibition at 1 µM on CB2 receptor (read-out: CB2 receptor binding percent inhibition, test concentration 1 μM (footnote 1)) came out at 16%. In addition, it took 1 nM to reach a half-maximal effect on CB1 receptor [1] (EC50). Moreover, the IC50 at CB1 receptor [2] is 5 nM and 6 nM and 7 nM. Also, the “CB1 receptor binding percent inhibition” value on CB1 receptor [2] (test concentration 0.2 μM (footnote 2), 0.2 µM) was 89%. Further, the “CB1 receptor binding average percent inhibition” value at CB1 receptor [2] (value shown is an average percent inhibition (footnote 5), concentration not given) amounted to 96%.
For `COc1ccc(/C=C2\CCCCc3c(C(=O)NN4CC5CCCC5C4)nn(-c4ccc(Cl)cc4Cl)c32)cc1` (centres unmarked) [Cpd 226, (8E)-1-(2,4-dichloro-phenyl)-8-(4-methoxy-benzylidene)-1,4,5,6,7,8-hexahydro-cycloheptapyrazole-3-carboxylic acid (hexahydro-cyclopenta[c]pyrrol-2-yl)-amide], the inhibition at 0.2 µM at CB2 receptor came out at 48%. This molecule yielded an EC50 at CB1 receptor [1] of 3 nM. For the same molecule, on CB1 receptor [2], the half-maximal inhibitory concentration (IC50) is 40 nM and the inhibition at 0.2 µM came out at 72%.
